From PubChem BioAssay AID2060508 (Molecular Pharmacology Branch, DTP, NCI, 2025)

Tested on: 454973-116-R2-J3-PDC spheroids, viability, % test/control
Experiment: Anticancer human tumor 454973-116-R2-J3-PDC patient-derived pancreatic carcinoma cell line growth inhibition [GQUAD]
Details: spheroids with HUVEC and MSC; for IC50: curve of first compound; for viability, T/C: stronger effect = lower value
In short: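 Multi-cell-type spheroids of tumor cells with HUVEC and mesenchymal stem cells, treated with drug combinations. Concentrations descend in half-log steps from near clinical Cmax, or from 10 microM where Cmax is unknown; viability read-out.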

[1] = second compound 0.0316 µM, first compound 0.0316 µM
[2] = second compound 0.0316 µM, first compound 0.1 µM
[3] = second compound 0.0316 µM, first compound 0.316 µM
[4] = second compound 0.0316 µM, first compound 1 µM
[5] = second compound 0.0316 µM, first compound 3.16 µM
[6] = second compound 0.0316 µM, first compound 10 µM
[7] = second compound 0.1 µM, first compound 0.0316 µM
[8] = second compound 0.1 µM, first compound 0.1 µM
[9] = second compound 0.1 µM, first compound 0.316 µM
[10] = second compound 0.1 µM, first compound 1 µM
[11] = second compound 0.1 µM, first compound 3.16 µM
[12] = second compound 0.1 µM, first compound 10 µM
[13] = second compound 0.316 µM, first compound 0.0316 µM
[14] = second compound 0.316 µM, first compound 0.1 µM
[15] = second compound 0.316 µM, first compound 0.316 µM
[16] = second compound 0.316 µM, first compound 1 µM
[17] = second compound 0.316 µM, first compound 3.16 µM
[18] = second compound 0.316 µM, first compound 10 µM
[19] = second compound 1 µM, first compound 0.0316 µM
[20] = second compound 1 µM, first compound 0.1 µM
[21] = second compound 1 µM, first compound 0.316 µM
[22] = second compound 1 µM, first compound 1 µM
[23] = second compound 1 µM, first compound 3.16 µM
[24] = second compound 1 µM, first compound 10 µM
[25] = second compound 3.16 µM, first compound 0.0316 µM
[26] = second compound 3.16 µM, first compound 0.1 µM
[27] = second compound 3.16 µM, first compound 0.316 µM
[28] = second compound 3.16 µM, first compound 1 µM
[29] = second compound 3.16 µM, first compound 3.16 µM
[30] = second compound 3.16 µM, first compound 10 µM
[31] = second compound 10 µM, first compound 0.0316 µM
[32] = second compound 10 µM, first compound 0.1 µM
[33] = second compound 10 µM, first compound 0.316 µM
[34] = second compound 10 µM, first compound 1 µM
[35] = second compound 10 µM, first compound 3.16 µM
[36] = second compound 10 µM, first compound 10 µM
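Note: spheroids exposed to compounds for seven days.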
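Throughout, for viability, T/C: 100% = DMSO vehicle control viability.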

CC1COCCN1c1cc(C2(O)CC3CCC(C2)O3)c2cnn(-c3ccn[nH]3)c2n1 (centres undefined) + Cc1cnc(CNC(=O)c2c(=O)c3ccc(N4CCCN(C)CC4)nc3n3c2sc2ccccc23)cn1
IC50 (second compound 0.0316 µM): 31.8 nM | IC50 (second compound 0.1 µM): < 31.6 nM | IC50 (second compound 0.316 µM): < 31.6 nM | IC50 (second compound 1 µM): < 31.6 nM | IC50 (second compound 3.16 µM): < 31.6 nM | IC50 (second compound 10 µM): < 31.6 nM | viability, T/C [1]: 50.7% | viability, T/C [2]: 27.5% | viability, T/C [3]: 19.5% | viability, T/C [4]: 20.4% | viability, T/C [5]: 18.7% | viability, T/C [6]: 9.73% | viability, T/C [7]: 35% | viability, T/C [8]: 22.3% | viability, T/C [9]: 19.1% | viability, T/C [10]: 19% | viability, T/C [11]: 17.7% | viability, T/C [12]: 12.7% | viability, T/C [13]: 29.6% | viability, T/C [14]: 25.4% | viability, T/C [15]: 24.9% | viability, T/C [16]: 22% | viability, T/C [17]: 18.3% | viability, T/C [18]: 10.8% | viability, T/C [19]: 38.9% | viability, T/C [20]: 29.1% | viability, T/C [21]: 27.5% | viability, T/C [22]: 23.8% | viability, T/C [23]: 20% | viability, T/C [24]: 11.7% | viability, T/C [25]: 37.9% | viability, T/C [26]: 32.3% | viability, T/C [27]: 31.6% | viability, T/C [28]: 23.4% | viability, T/C [29]: 18.2% | viability, T/C [30]: 7.65% | viability, T/C [31]: 0.12% | viability, T/C [32]: 0.16% | viability, T/C [33]: 0.21% | viability, T/C [34]: 0.15% | viability, T/C [35]: 0.23% | viability, T/C [36]: 0.19%

COc1ncnc(C2CC2)c1-c1ncc2cnn(Cc3ccc(-c4nc(C(F)(F)F)cn4C(C)C)cc3)c2n1 + Cc1[nH]c2ccc(F)cc2c1-c1nc2c3cccnc3c3ncccc3c2[nH]1
IC50 (second compound 0.0316 µM): > 10000 nM | IC50 (second compound 0.1 µM): > 10000 nM | IC50 (second compound 0.316 µM): > 10000 nM | IC50 (second compound 1 µM): > 10000 nM | IC50 (second compound 3.16 µM): > 10000 nM | IC50 (second compound 10 µM): > 10000 nM | viability, T/C [1]: 112% | viability, T/C [2]: 100% | viability, T/C [3]: 110% | viability, T/C [4]: 110% | viability, T/C [5]: 96% | viability, T/C [6]: 102% | viability, T/C [7]: 126% | viability, T/C [8]: 102% | viability, T/C [9]: 107% | viability, T/C [10]: 105% | viability, T/C [11]: 92.9% | viability, T/C [12]: 100% | viability, T/C [13]: 109% | viability, T/C [14]: 111% | viability, T/C [15]: 106% | viability, T/C [16]: 120% | viability, T/C [17]: 105% | viability, T/C [18]: 98.6% | viability, T/C [19]: 103% | viability, T/C [20]: 99.3% | viability, T/C [21]: 105% | viability, T/C [22]: 106% | viability, T/C [23]: 92.3% | viability, T/C [24]: 98.9% | viability, T/C [25]: 99.2% | viability, T/C [26]: 97.3% | viability, T/C [27]: 99.4% | viability, T/C [28]: 91.5% | viability, T/C [29]: 96.9% | viability, T/C [30]: 89.8% | viability, T/C [31]: 102% | viability, T/C [32]: 92.9% | viability, T/C [33]: 96.7% | viability, T/C [34]: 86.8% | viability, T/C [35]: 83.5% | viability, T/C [36]: 95.1%
